From patent US20200297847A1, “Pharmaceutical Composition For Treating Obesity Induced By High Fat Diet And Non-Alcoholic Fatty Liver Disease By Using Trisodium Chlorin E6 Photosensitizer” (DONG SUNG PHARM. CO., LTD., priority 2017, published 2020)

How the values were obtained:
high-fat diet mice [1] = experiment: anti-obesity experiment (PDT, body weight of mice fed with high-fat diet); format: in vivo, C57 Black mice; details: group 5: HFD + 2.5 mg/kg intraperitoneally + high-level LED irradiation (4.96 mW/cm^2, 10 min, 2.98 J/cm^2); compared with group 4 (low-level LED) and group 1 (HFD); FIG. 2
Experimental: (§1) 6-week-old C57 Black mice were purchased and were fed with normal diet for a week of environmental adaptation.
(§2) After feeding with normal diet for a week, these mice were randomly divided into 7 groups and tested. The body weight thereof was measured periodically (three times per week), and an anti-obesity experiment was conducted when the body weight was about 20% more than the initial body weight. The anti-obesity experiment was as follows.
For group 1, only high-fat diet (HFD) was provided and the body weight was periodically measured (HFD).
For group 2, only high-fat diet (HFD) was provided and the body weight was periodically measured, and the mice were placed in an LED-illuminated cage when the body weight thereof was about 20% or more than the initial body weight, followed by irradiation with low-level LED light.
For group 3, only high-fat diet (HFD) was provided and the body weight was periodically measured, and the mice were placed in an LED-illuminated cage when the body weight thereof was about 20% or more than the initial body weight, followed by irradiation with high-level LED light.
For group 4, only high-fat diet (HFD) was provided and the body weight was periodically measured, and when the body weight was about 20% or more than the initial body weight, trisodium Chlorin e6 (2.5 mg/kg) was dissolved in 200 μl of a saline solution and administered intraperitoneally. […]

high-fat diet mice [2] = experiment: lipid production and examination of non-alcoholic steatohepatitis (morphological examination of liver); format: in vivo, C57 Black mice; details: FIG. 3
Experimental: as §1, §2
For group 4, only high-fat diet (HFD) was provided and the body weight was periodically measured, and when the body weight was about 20% or more than the initial body weight, trisodium Chlorin e6 (2.5 mg/kg) was dissolved in 200 μl of a saline solution and administered intraperitoneally. After intraperitoneal administration thereof, the mice were allowed to adapt to a dark room for 3 hr and then placed in an LED-illuminated cage, followed by irradiation with low-level LED light.
For group 5, only high-fat diet (HFD) was provided and the body weight was periodically measured, and when the body weight was about 20% or more than the initial body weight, trisodium Chlorin e6 (2.5 mg/kg) was dissolved in 200 μl of a saline solution and administered intraperitoneally. […]

mice = experiment: toxicity detection (shape of whole body and internal organs after dissection); format: in vivo
Experimental: The mice treated with Chlorin e6 were tested for potential toxicity by observing the shape of the internal organs through dissection after killing.
The main concern in the development of medicaments or therapies is safety, and the safe use of medicaments means to effectively treat the disease with minimal or no toxicity in the body or parts of the body. Therefore, in the present experiment, the toxic effects of drugs and LED irradiation were examined. After the mice were dissected, the whole body and internal organs were examined in order to verify toxicity. […] It was observed that the liver was normal other than the fatty liver observed in the groups treated with HFD alone and LED alone (FIG. 6).

trisodium Chlorin e6
weight loss / reduction of percentage of weight gain (high-fat diet mice [1]): the most effective group | non-alcoholic steatohepatitis (NASH) (high-fat diet mice [2]; group 4: HFD + 2.5 mg/kg intraperitoneally + low-level LED irradiation (2.56 mW/cm^2, 5 min, 0.77 J/cm^2)): alleviated | non-alcoholic steatohepatitis (NASH) (high-fat diet mice [2]; group 5: HFD + 2.5 mg/kg intraperitoneally + high-level LED irradiation): alleviated | toxicity during treatment (mice; Chlorin e6 and LED irradiation in mice): Toxicity was not observed | internal organs after dissection (mice; mouse, in vivo): no bleeding, color change or gangrene in the intestines was observed
